# Experimental data as given in patent publication US20240117431A1, “STEM-CELL BASED BIOMARKER DISCOVERY” (THE REGENTS OF THE UNIVERSITY OF CALIFORNIA, priority 2020, published 2024).
# Target: T1, Methionine-tRNA Synthetase L272G (MethL272G) iPSCs (Homo sapiens, UniProt P56192, L272G)
# T1 construct: Using CRISPR gene editing, this locus was successfully modified in a human iPSC line; endogenous in cells; host or cells: human iPSC line ADRC 76, CRISPR-edited
# T1 sequence (P56192 1-900 L272G): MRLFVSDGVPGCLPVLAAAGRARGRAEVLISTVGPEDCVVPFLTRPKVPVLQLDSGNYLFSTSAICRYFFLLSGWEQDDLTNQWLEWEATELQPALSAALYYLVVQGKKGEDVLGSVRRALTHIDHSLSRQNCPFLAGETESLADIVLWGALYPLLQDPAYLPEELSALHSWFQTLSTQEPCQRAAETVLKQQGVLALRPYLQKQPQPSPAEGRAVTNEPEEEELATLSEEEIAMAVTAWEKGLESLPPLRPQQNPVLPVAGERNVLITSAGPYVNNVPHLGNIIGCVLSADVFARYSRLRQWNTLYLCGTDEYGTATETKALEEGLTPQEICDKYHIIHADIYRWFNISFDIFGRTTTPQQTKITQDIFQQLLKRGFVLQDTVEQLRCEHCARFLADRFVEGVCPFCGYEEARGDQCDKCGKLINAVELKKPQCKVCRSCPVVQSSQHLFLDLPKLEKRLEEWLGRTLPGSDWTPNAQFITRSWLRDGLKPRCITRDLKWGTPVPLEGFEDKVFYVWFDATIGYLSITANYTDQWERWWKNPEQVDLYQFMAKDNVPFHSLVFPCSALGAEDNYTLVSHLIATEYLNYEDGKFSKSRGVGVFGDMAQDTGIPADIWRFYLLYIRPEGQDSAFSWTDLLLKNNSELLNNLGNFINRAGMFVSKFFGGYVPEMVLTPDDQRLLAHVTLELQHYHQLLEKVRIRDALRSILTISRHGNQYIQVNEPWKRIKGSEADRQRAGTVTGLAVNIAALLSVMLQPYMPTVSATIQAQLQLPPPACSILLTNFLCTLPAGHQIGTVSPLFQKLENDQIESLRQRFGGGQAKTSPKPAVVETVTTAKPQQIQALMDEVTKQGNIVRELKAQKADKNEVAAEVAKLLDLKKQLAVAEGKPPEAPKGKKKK
# Assay: ANL incorporation into nascent protein of iPSCs (BONCAT western blot, TAMRA confocal microscopy)
# Format: cell-based
# Settings: 1.5 mM ANL, 14 hrs
# Experimental: Validation by Western Blot: Wild-type (WT) and MethL272G iPSCs were cultured in 6-well plate with and without 1.5 mM ANL (Tocris 6585) for 14 hrs in DMEM/F12 Silac media without Methionine (AthenaES 0433) supplemented with TeSR™-E8™ 25× Supplement. (Note: Methionine-absent media is described as Metia below.) Cells were dissociated and collected using TrypLE Express (Gibco 12605028) for 3 min at 37° C., isolated, and lysed in Ripa buffer with Halt Protease Inhibitor Cocktail (ThermoFisher Scientific 78429) and Halt Phosphatase Inhibitor Cocktail (ThermoFisher Scientific 78426). 200 μg of protein was labeled for analysis using Click-iT Protein Analysis TAMRA alkyne Detection Kit (Invitrogen C33370) that tags the azide of ANL incorporated protein with a TAMRA-alkyne tag via the following reaction:
# The resulting protein pellets were boiled in 120 μl of Loading Buffer and boiled for 15 minutes at 70° C., which were then loaded into a 4-15% Criterion TGX 12-well Gel (Bio-Rad 5671083) for electrophoresis, then transferred to Trans-Blot® Turbo™ Midi Nitrocellulose Membrane (Bio-Rad 1704159) for analysis. Protein was probed with TAMRA Monoclonal Antibody (5G5) (Invitrogen MA1-041) followed by anti-mouse secondary for imaging. […]
compound,measurement,setting,value
"[N-]=[N+]=NCCCC[C@H](N)C(=O)O [ANL, L-azidonorleucine]",labeling of cellular protein (TAMRA confocal microscopy),"control ADRC76 versus MethL272G iPSCs, FIG. 2A",labeling of cellular protein only in mutated MethL272G iPSCs
same,BONCAT labeling of ANL-incorporated protein (western blot),"methionine-absent media, FIG. 1B",successful BONCAT labeling
